In patent US20240398738A1, “MANIPULATION OF THE RETINOIC ACID SIGNALING PATHWAY” (THE REGENTS OF THE UNIVERSITY OF CALIFORNIA, priority 2017, published 2024):
Entries after “also recorded” stand apart in the source; their conditions may differ.

Columns and labels:
[1] = test system: retinal neurons (photoreceptors); test: TUNEL assay after intravitreal injection; format: in vivo, mouse; settings: WT, 5-6 days after intravitreal injection, ATRA 100 nM
Text: Immunolabeling and TUNEL assay. S334ter rat retinas infected with the RARE double reporter were dissected, fixed and frozen, as previously described (54). The tissue was cut in 14 μm thick cross-sections using a Leica cryostat. Immunocytochemical solution (ICC) was composed of standard 1×PBS (Gibco), 2.5% BSA (Sigma) and 0.1% Triton (Sigma). The tissue was blocked using ICC solution supplemented with unconjugated rabbit anti-mouse secondary antibody (Life Technologies) at RT for 1 hr. Slides were incubated with primary mouse anti-GFP antibody (#JL8, Clontech), with no RFP cross-reactivity, at 4° C. ON. An Alexa Fluor-488 conjugated goat anti-mouse secondary antibody (Life Technologies) was used at RT for 1 hr in the dark. The same procedure was carried out for detection of RARβ in mouse retinas following injection of vehicle or ATRA. Slides were incubated with a primary rabbit anti-RARβ antibody (ab53161, Abcam) and detected using an Alexa Fluor-488 conjugated goat anti-rabbit secondary antibody (Life Technologies). TUNEL assay (In Situ Cell Death Detection Kit, Roche) was carried out per manufacturer's instructions. Retinas were collected 5-6 days following injection with vehicle, ATRA, or ATRA and Liarozole.
TUNEL assay. TUNEL assay (In Situ Cell Death Detection Kit, Roche) was carried out per manufacturer's instructions. […]

[2] = test system: RGCs in rd1 retina; test: MEA recording of photoswitch (QAQ, BENAQ) photosensitization in rd1 retina; format: in vivo, mouse
Procedure: Intravitreal Injections. Before injection, mice were anesthetized with isoflurane (2%) and their pupils were dilated with tropicamide (1%) and phenylephrine (2.5%). Proparacaine (0.5%) was used as a topical analgesic. Genteal was applied under a glass coverslip to keep the cornea lubricated. An incision was made through the sclera below the ora serrata with a 30G needle and ˜1 μl of solution was injected into the vitreous with a blunt-ended 33G Hamilton syringe. After injection, the antibiotic tobramycin (0.3%) was applied to the eye. Final drug concentrations after intravitreal injection were: all-trans retinoic acid (ATRA, 100 nM), liarozole (100 μM), diethylaminobenzaldehyde (DEAB, 20 μM), citral (50 μM), BMS-493 (500 nM), and retinaldehyde (1 μM). The above values correspond to the final concentration in the eye after injecting 1 μl of drug accounting for a 5-fold dilution. An injection of PBS including 1% DMSO was used as vehicle control.
Multi Electrode Array Recordings. For extracellular recordings, a flat-mounted retina was placed ganglion cell layer down onto a 60-electrode Multi-Electrode Array (MEA 1060-2-BC, Multi-Channel Systems). After mounting the retina, photoswitches were applied for 30 min, followed by a 15 min wash. BENAQ was applied at a concentration of 100 μM and QAQ at 300 μM. A solution containing a mixture of neurotransmitter receptor blockers isolated RGCs from synaptic inputs: (in μM) 10 AP4, 40 DNQX, 30 AP5, 10 SR-95531, 50 TPMPA, 10 strychnine, and 50 tubocurarine. Extracellular spikes were high-pass filtered at 200 Hz and digitized at 20 kHz and were counted when exceeding 4 SD from the mean background voltage signal. Typically, each electrode recorded spikes from one to three individual RGCs. Principal component analysis of the spike waveforms was used for sorting spikes generated by individual cells (Offline Sorter, Plexon). Stimulation light was generated from a mercury arc lamp. Unfiltered broad spectrum light was used for BENAQ-treated retinas. Narrow band optical filters (Chroma) were used to deliver alternating intervals of 380 nm and 500 nm for stimulation of QAQ-treated as described previously (5,12). The Photoswitch Index (5) (PI) was established for individual retinas in light/darkness for treatment with BENAQ or in 380 nm/500 nm light for treatment with QAQ (11,12).
Injections. Intravitreal injections: Adult mice and rats were intravitreally injected with drugs or viruses. Before injection, animals were anesthetized with isoflurane (2%) and their pupils were dilated with tropicamide (1%) and phenylephrine (2.5%). Proparacaine (0.5%) was used as a topical analgesic. Genteal was applied under a glass coverslip to keep the cornea lubricated. An incision was made through the sclera below the ora serrata with a 30G needle. Solutions were injected into the vitreous with a blunt-ended 33G Hamilton syringe. After injection, the antibiotic tobramycin (0.3%) was applied to the eye. Final drug concentrations (after 5-fold dilution in the vitreous) were: 100 nM all-trans retinoic acid (ATRA), 100 μM liarozole (24), 20 μM diethylaminobenzaldehyde (DEAB) (28,93), 50 μM citral, 500 nM BMS 493 (85), 1 μM retinaldehyde, and vehicle comprising of 1× phosphate buffered saline (PBS) containing 1% dimethyl sulfoxide (DMSO). Intravitreal injections were performed using AAV2 serotype only. WT and rd1 mice were injected with the RAR-reporter virus or the RARDN virus, at age 1-1.5 month-old. […]

Structure (SMILES)	cell death / toxicity (TUNEL) [1]	QAQ photosensitization of rd1 retina, in words ([2]; rd1 mice injected intravitreally with BMS-493)	Photoswitch Index (PI) with BENAQ ([2]; rd1 retina treated with BMS-493 (intravitreal, 3-7 days), BENAQ, white light/darkness, mean±SEM)	Photoswitch Index (PI) with QAQ ([2]; rd1 retina treated with BMS-493 (intravitreal, 3-7 days), QAQ 300 μM, 380/500 nm, mean±SEM)
CC1=C(/C=C/C(C)=C/C=C/C(C)=C/C(=O)O)C(C)(C)CCC1 [ATRA, all-trans retinoic acid]	does not cause retinal neuron degeneration; also recorded: non-toxic; also recorded: no cell death			
CC1(C)CC=C(C#Cc2ccccc2)c2cc(/C=C/c3ccc(C(=O)O)cc3)ccc21 [BMS-493]		prevented QAQ photosensitization	0.35±0.05	0.15±0.06
